In test [1] the target is T1, Full length Human FAK (Flag-His-TEV-FAK1) (Homo sapiens, UniProt Q05397).
T1 construct: Full length Human FAK was expressed using baculovirus in Sf9 cells; made in house; host or cells: baculovirus in Sf9 cells
Kind of test: Biochemical assay for FAK activity, Assay 2: LANCE Ultra ULight peptide phosphorylation, 665 nm/615 nm ratio. Conditions: Flag-His-TEV-FAK1, 10 μM ATP, 30 min pre-incubation; read-out: Assay 2 FAK H 31284A TRF PXC50 (converted). How it is done: Flag-His-TEV-FAK1 was prepared in-house. Full length Human FAK was expressed using baculovirus in Sf9 cells with N-terminal FLAG-6×His tags followed by a TEV cleavage site (FLAG-6×His-TEV-huFAK). […] To measure inhibitors of FAK, compounds were first prepared as a 100× stock in 100% DMSO. […] After incubating for 120 minutes at room temperature, the reaction is quenched by adding 5 uL of 20 mM EDTA and 5nMEu-Anti-pTyr antibody in 1× LANCE detection buffer.
On the technique in general: In TR-FRET formats the signal depends on donor and acceptor labels being close together.

For test [2], the target named is T2, GST-tagged FAK (Homo sapiens, UniProt Q05397).
T2 construct: purchased Invitrogen PV3832
Kind of test: Biochemical assay for FAK activity, Assay 1: phosphorylation of peptide substrate with radio-labeled ATP. To be noted: 5 μM ATP, 30 min pre-incubation, read-out: Assay 1 FAK TRF PXC50 (converted). The protocol:
GST-tagged (glutathione S-transferase-tagged) FAK was purchased from Invitrogen (PV3832) (www.invitrogen.com). […] To measure inhibitors of FAK, compounds were first prepared as a 10× stock in 10% DMSO. […] A 6-nM GST-FAK solution was prepared in 1.1× reaction buffer containing 44 mM HEPES, pH=7.2, 11 mM MgCl2, 2.2 mM MnCl2, 1.1 mM DTT and 0.011% Tween-20. Then, 20 μL of the 6 nM GST-FAK solution were pre-incubated with the compounds for 30 min at room temperature. […] The reaction was allowed to proceed for 90 min before being quenched with 40 μL of 1% H3PO4. A portion of the reaction mixture (60 μL) was transferred to a phospho-cellulose filter plate (Millipore; www.millipore.com, MAPHNOB50) and incubated for 20 minutes. The plate was filtrated, washed three times using 150 μL of 0.5% H3PO4 and dried at 50° C. for 30 min. After the addition of 60 μL Microscint-20 to the plate, radioactivity was measured using a TopCount (PerkinElmer; www.PerkinElmer.com).

Structures are written as SMILES.

T2 sequence (Q05397 whole entry): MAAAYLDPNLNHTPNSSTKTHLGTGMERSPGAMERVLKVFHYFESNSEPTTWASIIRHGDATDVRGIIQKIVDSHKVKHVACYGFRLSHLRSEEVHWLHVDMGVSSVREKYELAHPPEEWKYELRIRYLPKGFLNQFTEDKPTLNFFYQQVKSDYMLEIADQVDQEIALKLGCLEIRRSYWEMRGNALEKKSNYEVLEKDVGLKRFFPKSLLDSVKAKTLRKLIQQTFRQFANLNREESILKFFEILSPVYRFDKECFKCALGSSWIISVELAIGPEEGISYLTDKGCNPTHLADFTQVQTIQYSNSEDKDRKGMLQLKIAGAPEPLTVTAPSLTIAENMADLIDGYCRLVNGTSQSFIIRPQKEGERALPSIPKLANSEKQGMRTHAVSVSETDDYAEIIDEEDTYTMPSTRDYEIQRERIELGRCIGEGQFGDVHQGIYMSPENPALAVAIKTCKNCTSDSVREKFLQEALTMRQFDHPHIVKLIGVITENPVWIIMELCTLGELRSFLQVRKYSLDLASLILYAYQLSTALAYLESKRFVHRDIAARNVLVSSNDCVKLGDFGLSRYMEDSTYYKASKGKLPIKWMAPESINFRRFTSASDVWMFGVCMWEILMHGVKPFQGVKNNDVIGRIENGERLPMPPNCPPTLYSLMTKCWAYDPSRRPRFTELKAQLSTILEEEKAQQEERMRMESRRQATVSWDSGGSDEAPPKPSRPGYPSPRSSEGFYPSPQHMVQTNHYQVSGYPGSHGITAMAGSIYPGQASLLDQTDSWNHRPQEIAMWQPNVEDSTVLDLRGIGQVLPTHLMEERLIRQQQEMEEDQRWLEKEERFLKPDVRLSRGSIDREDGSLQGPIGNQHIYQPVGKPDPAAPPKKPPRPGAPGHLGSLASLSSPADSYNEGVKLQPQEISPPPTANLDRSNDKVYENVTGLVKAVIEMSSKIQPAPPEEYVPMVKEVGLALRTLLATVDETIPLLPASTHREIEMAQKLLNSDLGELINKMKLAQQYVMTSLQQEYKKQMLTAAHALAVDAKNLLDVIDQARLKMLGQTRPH
T1 sequence (Q05397 whole entry): as above

Regarding `CNC(=O)c1ccccc1Nc1cc(Nc2cc(C)nn2C)ncc1C(F)(F)F` [Example 28, 2-{[2-[(1,3-Dimethyl-1H-pyrazol-5-yl)amino]-5-(trifluoromethyl)-4-pyridinyl]amino}-N-methylbenzamide], the IC50 in test [1] was 2.51 nM; in test [2], 0.398 nM. As to `CNC(=O)c1ccccc1Nc1cc(Nc2cc(C)nn2-c2ccccc2)ncc1C(F)(F)F` [Example 33, N-Methyl-2-{[2-[(3-methyl-1-phenyl-1H-pyrazol-5-yl)amino]-5-(trifluoromethyl)-4-pyridinyl]amino}benzamide], the IC50 in test [2] was 0.398 nM. As to `CNC(=O)c1ccccc1Nc1cc(Nc2cn(C)nc2C)ncc1Cl` [Example 26, 2-({5-Chloro-2-[(1,3-dimethyl-1H-pyrazol-4-yl)amino]-4-pyridinyl}amino)-N-methylbenzamide], the IC50 is 3.98 nM in test [1] and 0.398 nM in test [2].

As for `CCn1nccc1Nc1cc(Nc2ccc(Cl)cc2C(=O)NC)c(Cl)cn1` [Example 12, 5-Chloro-2-({5-chloro-2-[(1-ethyl-1H-pyrazol-5-yl)amino]-4-pyridinyl}amino)-N-methylbenzamide], the IC50 in test [1] is 5.01 nM; in test [2], 2.51 nM. In the same order, the values of `CCNC(=O)c1ccccc1Nc1cc(Nc2cc(C)nn2C(C)C)ncc1Cl` [Example 45, 2-[(5-Chloro-2-{[3-methyl-1-(1-methylethyl)-1H-pyrazol-5-yl]amino}-4-pyridinyl)amino]-N-ethylbenzamide] are 63.1 nM and 10 nM.

`CCn1nc(C)cc1Nc1cc(Nc2ccccc2C(=O)NC)c(Cl)cn1` [Example 13, 2-({5-Chloro-2-[(1-ethyl-3-methyl-1H-pyrazol-5-yl)amino]-4-pyridinyl}amino)-N-methylbenzamide]: the IC50 in test [1] was 2 nM; in test [2], 0.501 nM.

Turning to `CNC(=O)c1ccccc1Nc1cc(Nc2cc(C)nn2C)ncc1Cl` [Example 5, 2-({5-Chloro-2-[(1,3-dimethyl-1H-pyrazol-5-yl)amino]-4-pyridinyl}amino)-N-methylbenzamide], the values for the IC50 in test [1] and in test [2] were 7.94 nM and 1 nM, respectively.

With `CNC(=O)c1ccccc1Nc1cc(Nc2cc(C)nn2CCO)ncc1Cl` [Example 16, 2-[(5-Chloro-2-{[1-(2-hydroxyethyl)-3-methyl-1H-pyrazol-5-yl]amino}-4-pyridinyl)amino]-N-methylbenzamide], the IC50 was 20 nM in test [1] and 1.26 nM in test [2]. As to `CONC(=O)c1ccccc1Nc1cc(Nc2cc(C)nn2C)ncc1Cl` [Example 36, 2-({5-Chloro-2-[(1,3-dimethyl-1H-pyrazol-5-yl)amino]-4-pyridinyl}amino)-N-(methyloxy)benzamide], the IC50 was 1.58 nM in test [1] and 0.398 nM in test [2].

Regarding `CNC(=O)c1ccccc1Nc1cc(Nc2cc(C)nn2CCO)ncc1C(F)(F)F` [Example 34, 2-{[2-{[1-(2-hydroxyethyl)-3-methyl-1H-pyrazol-5-yl]amino}-5-(trifluoromethyl)-4-pyridinyl]amino}-N-methylbenzamide], the IC50 in test [2] is 0.501 nM. Same read-out and setting: the figure for `CCn1nc(C(=O)O)cc1Nc1cc(Nc2ccccc2C(=O)NC)c(Cl)cn1` [Example 18, 5-{[5-Chloro-4-({2-[(methylamino)carbonyl]phenyl}amino)-2-pyridinyl]amino}-1-ethyl-1H-pyrazole-3-carboxylic acid] is 10 nM; for `CNC(=O)c1ccccc1Nc1cc(Nc2cc(C)nn2CCN(C)C)ncc1C(F)(F)F` [Example 31, 2-{[2-({1-[2-(Dimethylamino)ethyl]-3-methyl-1H-pyrazol-5-yl}amino)-5-(trifluoromethyl)-4-pyridinyl]amino}-N-methylbenzamide] it is 3.98 nM. On to `[2H]C([2H])(O)c1cc(Nc2cc(Nc3c(F)cccc3C(=O)NC)c(Cl)cn2)n(CC)n1` [Example 94, 2-[(5-Chloro-2-{[1-ethyl-3-(hydroxymethyl)-1H-pyrazol-5-yl]amino}-4-pyridinyl)amino]-3-fluoro-N-methylbenzamide-d2], for which, in test [1], the IC50 was 3.98 nM. `CCn1nc(CN(C)C)cc1Nc1cc(Nc2c(F)cccc2C(=O)NC)c(Cl)cn1` [Example 92, 2-{[5-Chloro-2-({3-[(dimethylamino)methyl]-1-ethyl-1H-pyrazol-5-yl}amino)-4-pyridinyl]amino}-3-fluoro-N-methylbenzamide]: the IC50 in test [1] is 501 nM.

Regarding `CCn1nc(C)cc1Nc1cc(Nc2c(F)cccc2C(=O)NC)c(C(F)(F)F)cn1` [Example 77, 2-{[2-[(1-Ethyl-3-methyl-1H-pyrazol-5-yl)amino]-5-(trifluoromethyl)-4-pyridinyl]amino}-3-fluoro-N-methylbenzamide], in test [1], the IC50 was 1 nM. Consider `CNC(=O)c1ccc(F)cc1Nc1cc(Nc2cc(C)nn2C(C)C)ncc1Cl` [Example 86, 2-[(5-Chloro-2-{[3-methyl-1-(1-methylethyl)-1H-pyrazol-5-yl]amino}-4-pyridinyl)amino]-4-fluoro-N-methylbenzamide], for which, in test [1], the IC50 is 1.58 nM. On to `CCn1nc(CO)cc1Nc1cc(Nc2c(F)cccc2C(=O)NC)c(C(F)(F)F)cn1` [Example 79, 2-{[2-{[1-Ethyl-3-(hydroxymethyl)-1H-pyrazol-5-yl]amino}-5-(trifluoromethyl)-4-pyridinyl]amino}-3-fluoro-N-methylbenzamide], for which the IC50 in test [1] was 10 nM.

Regarding `CCn1nc(CCO)cc1Nc1cc(Nc2c(F)cccc2C(=O)NC)c(Cl)cn1` [Example 90, 2-[(5-Chloro-2-{[1-ethyl-3-(2-hydroxyethyl)-1H-pyrazol-5-yl]amino}-4-pyridinyl)amino]-3-fluoro-N-methylbenzamide], in test [1], the IC50 is 10 nM.

With `CCn1nc(C)cc1Nc1cc(Nc2ccccc2C(=O)NC)c(C2CC2)cn1` [Example 54, 2-[5-Cyclopropyl-2-(2-ethyl-5-methyl-2H-pyrazol-3-ylamino)-pyridin-4-ylamino]-N-methylbenzamide], the IC50 in test [1] was 31.6 nM. For `CNC(=O)c1cc(F)ccc1Nc1cc(Nc2cc(C)nn2C(C)C)ncc1Cl` [Example 85, 2-[(5-Chloro-2-{[3-methyl-1-(1-methylethyl)-1H-pyrazol-5-yl]amino}-4-pyridinyl)amino]-5-fluoro-N-methylbenzamide], the IC50 in test [1] was 63.1 nM.

`CCONC(=O)c1ccccc1Nc1cc(Nc2cc(C)nn2CC)ncc1Cl` [Example 64, 2-({5-Chloro-2-[(1-ethyl-3-methyl-1H-pyrazol-5-yl)amino]-4-pyridinyl}amino)-N-(ethyloxy)benzamide]: the IC50 in test [1] was 79.4 nM. Still for that read-out and setting: the figure for `CONC(=O)c1cc(F)ccc1Nc1cc(Nc2cc(C)nn2C(C)C)ncc1Cl` [Example 71, 2-[(5-Chloro-2-{[3-methyl-1-(1-methylethyl)-1H-pyrazol-5-yl]amino}-4-pyridinyl)amino]-5-fluoro-N-(methyloxy)benzamide] is 6.31 nM; for `CCn1nc(C)cc1Nc1cc(Nc2ccccc2C(=O)NOC)c(C2CC2)cn1` [Example 56, 2-[5-Cyclopropyl-2-(2-ethyl-5-methyl-2H-pyrazol-3-ylamino)-pyridin-4-ylamino]-N-methoxy-benzamide] it is 15.8 nM. Turning to `CCn1nc(C)cc1Nc1cc(Nc2ccccc2C(=O)N(C)O)c(Cl)cn1` [Example 63, 2-({5-Chloro-2-[(1-ethyl-3-methyl-1H-pyrazol-5-yl)amino]-4-pyridinyl}amino)-N-hydroxy-N-methylbenzamide], the IC50 in test [1] was 50.1 nM. On the same count and under the same terms, the figure for `Cc1cc(Nc2cc(Nc3ccc(F)cc3C(=O)N3CCCN3)c(Cl)cn2)n(C(C)C)n1` [Example 96a, 5-Chloro-N^4-[4-fluoro-2-(1-pyrazolidinylcarbonyl)phenyl]-N^2-[3-methyl-1-(1-methylethyl)-1H-pyrazol-5-yl]-2,4-pyridinediamine] is 20000 nM; for `CCn1nc(C)cc1Nc1cc(Nc2cc(F)ccc2C(=O)NC)c(Cl)cn1` [Example 88, 2-({5-Chloro-2-[(1-ethyl-3-methyl-1H-pyrazol-5-yl)amino]-4-pyridinyl}amino)-4-fluoro-N-methylbenzamide] it is 2.51 nM.

Regarding `CCn1ncc(C)c1Nc1cc(Nc2ccccc2C(=O)NOC)c(Cl)cn1` [Example 50, 2-({5-Chloro-2-[(1-ethyl-4-methyl-1H-pyrazol-5-yl)amino]-4-pyridinyl}amino)-N-(methyloxy)benzamide], the IC50 in test [1] is 12.6 nM. On the same count and under the same terms, as for `CONC(=O)c1ccccc1Nc1cc(Nc2c(C)cnn2C(C)C)ncc1Cl` [Example 49, 2-[(5-Chloro-2-{[4-methyl-1-(1-methylethyl)-1H-pyrazol-5-yl]amino}-4-pyridinyl)amino]-N-(methyloxy)benzamide], the figure is 63.1 nM; as for `CONC(=O)c1cccc(F)c1Nc1cc(Nc2cc(C)nn2C(C)C)ncc1Cl` [Example 72, 2-[(5-Chloro-2-{[3-methyl-1-(1-methylethyl)-1H-pyrazol-5-yl]amino}-4-pyridinyl)amino]-3-fluoro-N-(methyloxy)benzamide], 2.51 nM.

The values above are taken from patent US20140155410A1 (GlaxoSmithKline LLC, priority 2008, published 2014).
